Experimental data published in US11207365B2, “Combined preparations of urinary acidifiers and crystallization inhibitors and application thereof for the treatment or prevention of phosphatic or calcium phosphate-induced renal lithiasis” (UNIVERSITAT DE LES ILLES BALEARS, priority 2014, dated 2021).

Test: Induction time for the crystallization of calcium phosphate in artificial urine
Settings: for induction time t: 15 mM phosphate and 3 mM calcium solution in artificial urine (no magnesium); for delay in the induction time: 1 μM phytate versus solution without inhibitor
Experimental: From a 15 mM phosphate ion and 3 mM calcium ion solution in artificial urine, the induction times for the crystallization of calcium phosphate have been calculated at different pH and phytate concentration. The artificial urine had no magnesium since it is shown that the magnesium ion is a calcium phosphate crystallization inhibitor. […] Thus, while at pH 6.75, the calcium phosphate solution (without inhibitor) takes 1 minute to crystallize, with 1 μM phytate it takes 2 minutes (the delay in the induction time at this pH value is 1 minute, for 1 μM phytate). However, when the pH decreases to 6.60, the calcium phosphate solution (without inhibitor) takes 6 minutes to crystallize, while with 1 μM phytate it takes 33 minutes (the delay in the induction time at this pH value is 27 minutes, for 1 μM phytate). Thus, for the same amount of inhibitor there is a significant increase of the crystallization time when the value of the pH of the solution decreases.

Structure (SMILES): O=P(O)(O)O[C@H]1[C@H](OP(=O)(O)O)[C@@H](OP(=O)(O)O)[C@H](OP(=O)(O)O)[C@@H](OP(=O)(O)O)[C@H]1OP(=O)(O)O [phytate, myo-inositol-hexaphosphate]
- induction time t (0.5 μM phytate, pH = 6.60): 12 min
- induction time t (0.5 μM phytate, pH = 6.65): 4 min
- induction time t (0.5 μM phytate, pH = 6.75): 1 min
- delay in the induction time (pH 6.60): 27 min
- delay in the induction time (pH 6.75): 1 min
- induction time t (1.0 μM phytate, pH = 6.60): 33 min
- induction time t (1.0 μM phytate, pH = 6.65): 6 min
- induction time t (1.0 μM phytate, pH = 6.75): 2 min
